How the values were obtained:
[1] = tested on: type 1 diabetes mellitus mice; assay: Random blood glucose level in streptozotocin type 1 diabetes mellitus mouse model; format: in vivo; conditions: 200 mg/kg at 8 a.m. and 8 p.m. everyday; compared with the normal saline group; FIG. 4
Text: (§1) • 1. Blood glucose test strips and blood glucose meter, from Eli Lilly and Company, USA; • 2. C57 B6/J Female mice, from Nanjing Gem Pharmaceutical Co., Ltd.; • 3. Streptozotocin, from Sigma-Aldrich Company, USA; • 4. Ultrasensitive insulin kit, from ALPCO Company, USA; • 5. Insulin antibody, from DAKO Company, USA; • 6. Glucagon antibody, from ABCAM Company, USA; and • 7. Other reagents required for immunofluorescence assay were purchased from Shanghai Sangon Technology Co., Ltd.
(§2) An 8-week-old C57B6/J female mouse was administered intraperitoneally with 200 mg/kg of streptozotocin solution. After 5 days of injection, the random blood glucose level of the mice was measured, mice with blood glucose levels higher than 20 mmol/L were selected and randomly divided into two groups for subsequent experiments.
(§3) Type 1 diabetes mellitus mouse models were administered 200 mg/kg of 6-phosphogluconic acid methyl ester (compound 1-1) or physiological saline at 8 a.m. and 8 p.m. everyday. The random blood glucose level of each mouse was measured once a day. Before the end of the experiment, the mice were fasted for 16 hours, and a small amount of peripheral blood was taken from the tail vein.

[2] = tested on: islet β-cells; assay: Immunofluorescence assay of regeneration of islet β-cells in type 1 diabetes mellitus mice; format: in vivo, mouse; conditions: 200 mg/kg twice daily, compared with the normal saline group, FIG. 5
Text: as §1, §2, §3
Immunofluorescence assay was used to measure the regeneration of islet β-cells of type 1 diabetes mellitus mice.

[3] = tested on: type 1 diabetes mellitus mice; assay: Insulin concentration in peripheral blood measured by ultrasensitive insulin kit; format: in vivo, mouse; conditions: 200 mg/kg twice daily; fasted for 16 hours; compared with the normal saline group; FIG. 6
Text: as §1, §2, §3
The concentration of insulin in peripheral blood of mice was measured by an ultrasensitive insulin kit.

COC(=O)[C@H](O)[C@@H](O)[C@H](O)[C@H](O)COP(=O)(O)O [Compound 1-1, 6-phosphogluconic acid methyl ester]
random blood glucose level [1]: significantly reduced
number of islet β-cells (regeneration) [2]: significantly increased
concentration of fasting insulin in peripheral blood [3]: significantly increased
